Results taken from patent US6828092B1 (priority 1995, dated 2004).

What was measured:
[1] = system: ACoAT promoter-β-galactosidase reporter gene in yeast strain MEY133::pACoAT (sterol biosynthesis); assay: Reporter gene (β-galactosidase) induction assay in reporter yeast strain; assay type: cell-based, S. cerevisiae; details: for concentration above which reporter gene activity is induced: 24 hours at 30° C.; for reporter gene induction per cell: relative to basal
Description: Reporter gene induction is defined as:
where f refers to a final reading, and i to an initial reading. 100 to a concentration of 100 μg/ml and 10 to a concentration of 10 ng/ml. Reporter gene induction per cell is defined as: […]
(§1) Reporter gene activity assays (β-galactosidase assays) were performed using a single step procedure with the substrate chlorophenol red-β-D-galactopyranoside (CPRG, Boehringer): this substrate gives rise to a red product when cleaved by β-galactosidase. The appearance of this product can assessed by monitoring the optical density at 570 nm (OD570). The assays were performed in the wells of microtitre plates containing 200 μi of yeast in uracil-deficient medium. 50 μl of reaction mix was added to these wells, and immediately after this the absorption at 570 nm was measured using a Molecular Devices plate reader. Reaction mix was prepared as follows. 10×Z buffer (Ausabel et al) was prepared by dissolving 85.2 g Na2HPO4, 62.4 g NaH2PO4.2H2O, 7.5 g KCl and 2.46 g MgSO4.7H2O in 500 mls water. 2.7 mls β-mercaptoethanol was added to this solution and mixed. The pH was adjusted to pH 7 using 5M NaOH and the volume made up to 1 litre with water. 200 mls of reaction buffer was made by mixing 100 mls 10×Z buffer, 1.0 ml of 20% (w/v) sodium docedyl sulphate, 10 mls 50 mM CPRG and 89 mls water. After 2 hours a final OD570 reading was taken. Over this time frame, using the yeast strains descibed below, the rate of change of OD570 was constant. Therefore OD570final minus OD570 initial is taken as a measure of total reporter gene activity. OD570 initial is taken as a measurement of the number of cells in the culture, and reporter gene activity per cell is calculated as […].
Maximal induction of reporter gene activity by terbinafine in MEY133::pACoAT was obtained by:
(1) thawing a 1 ml aliquot of frozen stock and adding it to 100 ml of uracil deficient medium in a 500 ml conical flask and incubating for 24 hours at 30° C. with agitation to aerate the culture.
(2) diluting a sample of this culture with uracil deficient medium to give 100 mls of a culture with an optical density at 600 nm of 1.0 units, and incubating this culture for a further 24 hours in an incubator at 30° C. with agitation.
(§2) (3) diluting a sample of this culture with uracil deficient medium to give a culture with an optical density at 600 nm of 0.35 units. This culture was dispensed into 96 well flat-bottomed mucrotitre plates containing compounds. Each well contained 20 μl compound dissolved in 10% (v/v) dimethylsulphoxide. 180 μl culture was added each well. The plates were sealed with Titertex plate sealers and incubated for 24 hours at 30° C.
(§3) (4) The plates were removed from the incubator, and shaken to resuspend the yeast. The platesealers were removed and […] reaction mix added to each well. An initial OD570 reading was taken immediately following this addition. After a further two hours a final OD570 reading was taken. Optical density readings were taken with a Molecular Devices platereader using Softmax software. The machine was set to automatically agitate the samples before taking the reading.
(§4) The reporter gene in the yeast strain MEY133::ACoAT is induced by a range of sterol biosynthesis inhibitor. FIGS. 2-10 present dose-responses to nine different sterol biosynthesis inhibitors. The measurements of reporter gene activity and growth were obtained using the standard procedure described above. Each point on the graph is the average of three measurements, standard deviations being indicated by the error bars. In the absence of sterol biosynthesis inhibitors, a basal activity of the reporter gene is observed. This corresponds to a change in OD570 of 0.23 units/two hours (average of 15 measurements). During the period of time of the incubation the yeast cells grow to a density of 0.86 OD570 units (average of 15 measurements).

[2] = system: ACoAT promoter-β-galactosidase reporter gene in yeast strain MEY133::pACoAT (sterol biosynthesis); assay: as above; assay type: cell-based, S. cerevisiae
[3] = system: yeast strain MEY133::pACoAT; assay: Growth of reporter yeast strain (OD570); assay type: cell-based, S. cerevisiae; details: OD570, 24 hours incubation
Description: Reporter gene activity (OD570final−OD570initial) is indicated by solid squares. Growth (OD570 final) is indicated by open squares. Each point is the average of three measurements. Error bars indicate standard deviations.
as §1, §2, §3, §4

Squalene synthase = details: S. cerevisiae, application of inhibitor; cited from earlier work
[4] = system: lanosterol 14-a-demethylase gene induction; details: HMG1-deleted yeast; cited from earlier work

| Structure (SMILES) | reporter gene activity response (in words) ([1]; MEY133::pACoAT) | concentration above which reporter gene activity is induced ([1]; MEY133::pACoAT, dose-response) | growth inhibition (in words) [3] | other results |
| --- | --- | --- | --- | --- |
| CCCCCCN1CCCC(Cc2ccc(C(C)(C)C)cc2)C1 (centres unmarked) [3-(4-t-butylbenzyl)-(N-hexyl)-piperidine] | very sharp | above 10 μg/ml |  |  |
| CN(Cc1ccc(C(C)(C)C)cc1)Cc1cccc2ccccc12 [4-t-butyl-N-methyl-N-(I-naphthylmethyl)benzylamine] |  |  |  | reporter gene induction compared with terbinafine ([1]; at 100 μg/ml): to the same extent as terbinafine; reporter gene induction compared with terbinafine ([2]; at 10 μg/ml): much less active than terbinafine |
| Nc1nc(=O)[nH]cc1F [5-flucytosine] | do not induce reporter gene activity |  |  |  |
| CCC(C)(C)c1ccc(CC(C)CN2C[C@@H](C)O[C@@H](C)C2)cc1 (some centres unmarked) [Amorolfine] |  | above 1 μg/ml | some growth inhibitory properties |  |
| CC(Cc1ccc(C(C)(C)C)cc1)CN1C[C@@H](C)O[C@@H](C)C1 (some centres unmarked) [Fenpropimorph] | induces reporter gene activity |  | inhibiting growth to some extent |  |
| OC(Cn1cncn1)(c1ccc(F)cc1)c1ccccc1F (centres unmarked) [Flutriafol] |  |  | Some growth inhibition | concentration at which detectable reporter gene induction occurs ([1]; MEY133::pACoAT, dose-response): 0.1 µg/mL |
| CC[C@H](C)C(=O)O[C@H]1C[C@@H](C)C=C2C=C[C@H](C)[C@H](CC[C@@H]3C[C@@H](O)CC(=O)O3)[C@H]21 [Lovastatin] |  | above 1 μg/ml |  | reporter gene induction per cell [1]: 5 fold; increase of squalene synthase levels (Squalene synthase): 2-3 fold |
| C=C(CC[C@]12O[C@H](C(=O)O)[C@@](O)(C(=O)O)[C@](C(=O)O)(O1)[C@H](OC(=O)/C=C/[C@@H](C)C[C@@H](C)CC)[C@H]2O)[C@@H](OC(C)=O)[C@H](C)Cc1ccccc1 [Squalestatin] | biphasic response |  | growth inhibitory effect of squalestatin at higher concentrations | concentration of maximal reporter gene induction ([1]; MEY133::pACoAT, dose-response): 10 µg/mL; reporter gene activity per cell, comparison of concentrations ([2]; 10 μg/ml versus 100 μg/ml): almost identical |
| CN(C/C=C/C#CC(C)(C)C)Cc1cccc2ccccc12 [Terbinafine] |  | above 1 μg/ml | inhibits growth to a limited extent | reporter gene induction per cell [1]: 9 fold |
| C[C@@H]1[C@H](O)[C@@H](C)/C=C/C=C/C=C/C=C/C=C/C=C/C=C/[C@H](O[C@@H]2O[C@H](C)[C@@H](O)[C@H](N)[C@@H]2O)C[C@@H]2O[C@](O)(C[C@@H](O)C[C@@H](O)[C@H](O)CC[C@@H](O)C[C@@H](O)CC(=O)O[C@H]1C)C[C@H](O)[C@H]2C(=O)O [amphotericin B] | do not induce reporter gene activity |  |  |  |
| Cc1cccc(N(C)C(=S)Oc2ccc3ccccc3c2)c1 [tolnaftate] |  |  |  | detection in Kirsch screen [4]: not detected |
